Measurements reported in patent US20180000802A1, “PHARMACEUTICAL COMPOSITION FOR PREVENTION AND TREATMENT OF MENTAL DISEASE WITH ENHANCED NMDAR FUNCTION” (INSTITUTE FOR BASIC SCIENCE, priority 2015, published 2018).
“Also recorded” adds a separate entry of the source.

Experiments:
IRSp53 deficient mice = experiment: 3-chamber sociability test; type: in vivo, mouse; conditions: memantine 10 mg/kg, MPEP 30 mg/kg; for mice preference (sociability behavior) in the 3-chamber sociability test: intraperitoneal injection 30 minutes before the test, vs saline control; for sedation due to side effects: intraperitoneal injection
Method: For the experiment animals of the present invention, wild-type mice backcrossed into a C57BL/6J background and IRSp53 deficient mice were used. The mice were at 2-4 months of age. In addition, in the present invention, all of the experiments were conducted by maintaining a temperature of 20-22° C. and a humidity of 30-40% while the lights are turned on during 7:00 am to 7:00 pm. As the memantine, which is an NMDAR inhibitor and the MGluR inhibitor, the MPEP indirectly inhibiting the NMDAR is dissolved in physiological saline and used. The memantine is used in a concentration of 10 mg (10 mg/kg) per unit weight, and the MPEP is used in a concentration of 30 mg (30 mg/kg) per unit weight, and the drug was administered to the experiment mice by intraperitoneal injection before 30 minutes of every experiment. NMDAR was tested with respect to the sociability behavior of hyperactivated mice. The 3-chamber sociability test and the direct interaction test, which are the most widely used among the behavioral experiments for identifying sociability behavior of mice. The 3-chamber sociability test was conducted by using a behavior experiment box separated into 3 sections. […] A, B, and C of FIG. 1 show the measurement based on the box bottom, the horizontal side surface and the vertical side surface, respectively, and the experiment box was manufactured exposing that the top so the experiment may be photographed by a camera (FIG. 1). In the basic 3-chamber sociability test, a mouse (stranger) was placed in one side and an object (small toy block) without scent was placed in the other side, and the normal mouse (WT) and the deficient mouse were placed in the middle chamber to observe how much attention was given to the other mouse and explored and time was spent. The detailed experiment method of the present invention is described below. First, the wild-type mouse and the IRSp53 deficient mouse were prepared. In addition, before 10 minutes of the experiment, the mouse to be experimented was put into a soundproof booth in which the experiment was to be conducted. 10 minutes later, the holes in the inner wall were blocked and the mouse was put into the middle area. Another 10 minutes later, the holes were opened, and the mouse was allowed to move freely around the 3 chambers. […] During 10 minutes of experiment where the Stranger 1 and the object were placed, the time of the mouse staying at the two areas were measured. In addition, to measure the time of the actual mice exploring the stranger 1 or the object, the time when the nose of the mouse crosses over a virtual line 2 cm away from the plastic cup was measured. […]

NMDAR [1] = experiment: NMDA/AMPA ratio, electrophysiology in brain slices; type: cell-based; conditions: IRSp53 deficient mouse, ratio increased vs wild-type; MPEP treatment
Method: (§1) To observe whether the memantine and the MPEP restore the NMDAR function observed on the hippocampus of the IRSp53 deficient mice to a normal range, the electrical signal flow of the synapses through the NMDAR was measured by the electrophysiological experiment.
In the present experiment, the Long-term potentiation (LTP) and the Long-term depression experiments were conducted. First, the NMDAR properties of the nerve cell of the IRSp53 deficient mice were electrophysiologically measured. The measurement was experimented and conducted by the method disclosed in the paper of Kim M H et al. (Kim, M. H. et al. Enhanced NMDA Receptor-Mediated Synaptic Transmission, Enhanced Long-Term Potentiation, and Impaired Learning and Memory in Mice Lacking IRSp53. J Neurosci 29, 1586-1595, doi:Doi 10.1523/Jneurosci.4306-08.2009 (2009)). The equipment used for the electrophysiological measurement was MultiClamp 700B amplifier and Axopatch 200B of Molecular Devices, and Clampex 9.2 and Clampfit 9 software of the same company were used. During the experiment, BX50WI microscope of Olympus was used.
In the present experiment, first, for all of the electrophysiological experiment, brain slices were made from the brains of the normal mice and the IRSp53 deficient mice. To make the slices, VT1200S model vibratome of Leica was used. […]

IRSp53 deficient mouse = experiment: Nerve cell firing of the medial prefrontal cortex in the anesthetized mouse; type: in vivo; conditions: IRSp53 deficient mice, urethane anesthesia, 10 mg/kg intraperitoneally, observed after 30 minutes
Method: (§2) The memantine was administered to the IRSp53 deficient mouse, and the synapse of the medial prefrontal cortex was structurally and functionally analyzed. In the experiment, the brain slices were not made, an anesthetic drug (1.5 g/kg) named Urethane was used on the mouse to perform the electrophysiological experiment in a condition in which the neural circuitry in the mouse is maintained, and the electrical signal firing of the nerve cell was observed, In detail, in the experiment, the mouse was anesthetized, a glass electrode for measuring the electrical signal was inserted in the medial prefrontal cortex and the hippocampus, and measured. A and I of FIG. 7 show the positions through which each electrode is inserted. From the result of comparing the nerve cell firing of the medial prefrontal cortex of the IRSp53 deficient mouse, in the IRSp53 deficient mouse, the nerve cell firing of the medial prefrontal cortex decreased. Specifically, in the IRSp53 deficient mouse, the nerve cell firing specific to the excitatory nerve cell decreased (B, C and D of FIG. 7).

[2] = tested on: wild-type mouse and IRSp53 deficient mouse; experiment: Nerve cell firing of the hippocampus in the anesthetized mouse; type: in vivo; conditions: IRSp53 deficient mouse compared to wild-type mice after memantine injection
Method: as §2

NMDAR [3] = experiment: Electrophysiological measurement of NMDAR-LTD in hippocampal brain slices; type: cell-based; conditions: hippocampal brain slices of IRSp53 deficient mouse, weaker NMDAR-LTD than in normal mouse; memantine treatment
Method: as §1
When the NMDAR is activated by electrically stimulating the never cell, an ion transferred from the outside of the nerve cell to the inside of the nerve cell through the NMDAR according to the activation level exists, and by the ion concentration difference of the inside and outside of the cell, various proteins inside the cell are also activated, thereby showing electrical reaction of the nerve cell with respect to the stimulation. The state in which this reaction is maintained for 30 minutes or longer is called Long-term potentiation (LTP) and Long-term depression (LTD), and when the NMDAR is intensively activated, the LTP may be induced, and when the NMDAR is weakly activated a long-term weakening, LTD may be induced.
In the present experiment, the Long-term potentiation (LTP) and the Long-term depression experiments were conducted. First, the NMDAR properties of the nerve cell of the IRSp53 deficient mice were electrophysiologically measured. […]

Compound | mice preference (sociability behavior) in the 3-chamber sociability test (IRSp53 deficient mice) | sedation due to side effects (IRSp53 deficient mice) | NMDA/AMPA ratio (NMDAR [1]) | nerve cell firing of the medial prefrontal cortex (IRSp53 deficient mouse) | nerve cell firing change in the hippocampus [2] | NMDAR-LTD (NMDAR [3])
Cc1cccc(C#Cc2ccccc2)n1 [MPEP, 2-Methyl-6-(phenylethynyl)pyridine] | improved to a level of the wild-type mice | no sedation due to side effects | restored to the level of the wild-type mouse |  |  | 
CC12CC3CC(C)(C1)CC(N)(C3)C2 [memantine] | improved to a level of the wild-type mice | no sedation due to side effects |  | the drug showed good effects; also recorded: restored to the normal range | the firing was greater | restored
